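Protocol summary: plate cells (96-well), add compound at 5 concentrations, incubate 48 h, interpolate endpoints linearly. Abbreviation: GI50, concentration required for 50% inhibition of growth.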 The source made the active and inactive calls. Cut-off read from the data, not from the text of the source: active = GI50 up to about 1.1 µM and inactive = higher.
Key:
Assay in all cases: growth of human tumour cells (NCI), 48 h
786-0 = system: 786-0
A498 = system: A498
A549 = system: A549
ACHN = system: ACHN
CAKI-1 = system: CAKI-1
CCRF-CEM = system: CCRF-CEM
COLO 205 = system: COLO 205
DLD-1 = system: DLD-1
DMS-114 = system: DMS-114
DMS-273 = system: DMS-273
EKVX = system: EKVX
HCC 2998 = system: HCC 2998
HCT-116 = system: HCT-116
HCT-15 = system: HCT-15
HL-60 = system: HL-60
HOP-18 = system: HOP-18
HOP-62 = system: HOP-62
HOP-92 = system: HOP-92
HT-29 = system: HT-29
IGROV-1 = system: IGROV-1
K562 = system: K562
KM-20L2 = system: KM-20L2
KM12 = system: KM12
LOX IMVI = system: LOX IMVI
LXFL 529 = system: LXFL 529
M14 = system: M14
M19-MEL = system: M19-MEL
MOLT-4 = system: MOLT-4
Malme-3M = system: Malme-3M
NCI-H23 = system: NCI-H23
NCI-H460 = system: NCI-H460
NCI-H522 = system: NCI-H522
OVCAR-3 = system: OVCAR-3
OVCAR-5 = system: OVCAR-5
OVCAR-8 = system: OVCAR-8
RPMI-8226 = system: RPMI-8226
RXF 393 = system: RXF 393
SF-268 = system: SF-268
SF-295 = system: SF-295
SF-539 = system: SF-539
SK-MEL-2 = system: SK-MEL-2
SK-MEL-5 = system: SK-MEL-5
SK-OV-3 = system: SK-OV-3
SN12C = system: SN12C
SNB-19 = system: SNB-19
SNB-75 = system: SNB-75
SNB-78 = system: SNB-78
SW-620 = system: SW-620
TK-10 = system: TK-10
U-251 = system: U-251
UACC-257 = system: UACC-257
UACC-62 = system: UACC-62
UO-31 = system: UO-31
XF498 = system: XF498
NCI-H226 = system: NCI-H226
OVCAR-4 = system: OVCAR-4
SK-MEL-28 = system: SK-MEL-28
SR = system: SR

In the case of Cc1nc2c(o1)/C(=N\c1ccccc1)c1ccccc1C2=O, the GI50 (786-0) is reported as 15.2 µM (inactive), the GI50 (A498) is reported as 34.1 µM (inactive) and the GI50 (A549) is reported as 20.3 µM (inactive). The GI50 (ACHN) was 7.16 µM (inactive), the GI50 (CAKI-1) was 18.4 µM (inactive) and the GI50 (CCRF-CEM) was 10.9 µM (inactive). The GI50 (COLO 205) was 15.8 µM (inactive), the GI50 (DLD-1) was 12.9 µM (inactive) and the GI50 (DMS-114) was 3.3 µM (inactive). The GI50 (DMS-273) was 10.2 µM (inactive), the GI50 (EKVX) was 14.2 µM (inactive) and the GI50 (HCC 2998) was 18.6 µM (inactive). For the same compound, the GI50 (HCT-116) was 6.98 µM (inactive), the GI50 (HCT-15) was 8.11 µM and the GI50 (HL-60) was 3.3 µM (inactive). For the same compound, the GI50 (HOP-18) was 5.42 µM (inactive), the GI50 (HOP-62) was 13.5 µM (inactive) and the GI50 (HOP-92) was 12.3 µM (inactive). The GI50 (HT-29) was 18.7 µM (inactive), the GI50 (IGROV-1) was 17.9 µM (inactive) and the GI50 (K562) was 5.7 µM (inactive). For the same compound, the GI50 (KM-20L2) was 17.4 µM (inactive), the GI50 (KM12) was 15.1 µM (inactive) and the GI50 (LOX IMVI) was 3.32 µM (inactive). The GI50 (LXFL 529) was 11.9 µM (inactive), the GI50 (M14) was 9.64 µM (inactive) and the GI50 (M19-MEL) was 1.86 µM (inactive). The GI50 (MOLT-4) was 18 µM (inactive), the GI50 (Malme-3M) was 3.98 µM (inactive) and the GI50 (NCI-H23) was 1.9 µM (inactive). For the same compound, the GI50 (NCI-H460) was 12.6 µM (inactive), the GI50 (NCI-H522) was 4.57 µM (inactive) and the GI50 (OVCAR-3) was 2.54 µM (inactive). The GI50 (OVCAR-5) was 18.5 µM (inactive), the GI50 (OVCAR-8) was 3.67 µM (inactive) and the GI50 (RPMI-8226) was 5.66 µM (inactive). For the same compound, the GI50 (RXF 393) was 20.2 µM (inactive), the GI50 (SF-268) was 7.83 µM (inactive) and the GI50 (SF-295) was 16.5 µM (inactive). The GI50 (SF-539) was 5.16 µM (inactive), the GI50 (SK-MEL-2) was 4.86 µM (inactive) and the GI50 (SK-MEL-5) was 2.56 µM (inactive). The GI50 (SK-OV-3) was 14.8 µM (inactive), the GI50 (SN12C) was 10.1 µM (inactive) and the GI50 (SNB-19) was 11.5 µM (inactive). The GI50 (SNB-75) was 10.9 µM (inactive), the GI50 (SNB-78) was 6.81 µM (inactive) and the GI50 (SW-620) was 10.7 µM (inactive). The GI50 (TK-10) was 35.1 µM (inactive), the GI50 (U-251) was 3.61 µM (inactive) and the GI50 (UACC-257) was 5.97 µM (inactive). The GI50 (UACC-62) was 3.37 µM (inactive), the GI50 (UO-31) was 7.89 µM (inactive) and the GI50 (XF498) was 4.02 µM (inactive).
For O=C1c2ccccc2C(=O)C1(Cl)C1(S(=O)(=O)O)c2ccccc2-c2ccccc21, the GI50 (786-0) was > 100 µM (inactive), the GI50 (A498) was > 100 µM (inactive) and the GI50 (A549) was > 100 µM (inactive). The GI50 (ACHN) was > 100 µM (inactive), the GI50 (CAKI-1) was > 100 µM (inactive) and the GI50 (CCRF-CEM) was > 100 µM (inactive). For the same compound, the GI50 (COLO 205) was > 100 µM (inactive), the GI50 (DLD-1) was > 100 µM (inactive) and the GI50 (DMS-114) was > 100 µM (inactive). The GI50 (DMS-273) was > 100 µM (inactive), the GI50 (HCC 2998) was > 100 µM (inactive) and the GI50 (HCT-116) was > 100 µM (inactive). The GI50 (HCT-15) was over 100 µM, the GI50 (HL-60) was > 100 µM (inactive) and the GI50 (HOP-18) was > 100 µM (inactive). The GI50 (HOP-62) was > 100 µM (inactive), the GI50 (HOP-92) was > 100 µM (inactive) and the GI50 (HT-29) was > 100 µM (inactive). For the same compound, the GI50 (IGROV-1) was > 100 µM (inactive), the GI50 (K562) was > 100 µM (inactive) and the GI50 (KM-20L2) was > 100 µM (inactive). For the same compound, the GI50 (KM12) was > 100 µM (inactive), the GI50 (LOX IMVI) was > 100 µM (inactive) and the GI50 (LXFL 529) was > 100 µM (inactive). The GI50 (M14) was > 100 µM (inactive), the GI50 (M19-MEL) was > 100 µM (inactive) and the GI50 (MOLT-4) was > 100 µM (inactive). The GI50 (Malme-3M) was > 100 µM (inactive), the GI50 (NCI-H226) was > 100 µM (inactive) and the GI50 (NCI-H23) was > 100 µM (inactive). The GI50 (NCI-H460) was > 100 µM (inactive), the GI50 (NCI-H522) was > 100 µM (inactive) and the GI50 (OVCAR-3) was > 100 µM (inactive). The GI50 (OVCAR-4) was > 100 µM (inactive), the GI50 (OVCAR-5) was > 100 µM (inactive) and the GI50 (OVCAR-8) was > 100 µM (inactive). The GI50 (RPMI-8226) was > 100 µM (inactive), the GI50 (RXF 393) was > 100 µM (inactive) and the GI50 (SF-268) was > 100 µM (inactive). For the same compound, the GI50 (SF-295) was > 100 µM (inactive), the GI50 (SF-539) was > 100 µM (inactive) and the GI50 (SK-MEL-28) was > 100 µM (inactive). The GI50 (SK-MEL-5) was > 100 µM (inactive), the GI50 (SK-OV-3) was > 100 µM (inactive) and the GI50 (SN12C) was > 100 µM (inactive). The GI50 (SNB-75) was > 100 µM (inactive), the GI50 (SNB-78) was > 100 µM (inactive) and the GI50 (SR) was > 100 µM (inactive). The GI50 (SW-620) was > 100 µM (inactive), the GI50 (TK-10) was > 100 µM (inactive) and the GI50 (U-251) was > 100 µM (inactive). For the same compound, the GI50 (UACC-257) was > 100 µM (inactive), the GI50 (UACC-62) was > 100 µM (inactive) and the GI50 (UO-31) was > 100 µM (inactive). The GI50 (XF498) was > 100 µM (inactive).

Reference: ChEMBL document CHEMBL1201862, “PubChem BioAssay data set” (2004)
